In paper PMC9541320, “Machine Learning Guided Discovery of Non‐Hemolytic Membrane Disruptive Anticancer Peptides” (Chemmedchem, 2022):
Values after ≈ are worked out from the molar mass of the structure shown. Where two headings read alike, the source gives them in different places. Where a SMILES comes first, the peptide text is derived from it. Where no end group is shown, it is not given here. [ ]: non-standard residue; d: D form.

Experiments:
HeLa cells = test: Cell viability assay by AlamarBlue, HeLa cells; assay type: cell-based; settings: 72 h incubation at 37 °C in DMEM high glucose medium with 10 % FBS; read-out: Toxicity IC50 HeLa
Procedure: (§2) To measure potential ACP activity, we exposed HeLa cells to 50 μM of each peptide for 72 h and quantified remaining live cells with Alamar Blue. We performed full IC50 determination for active sequences under the same conditions and similarly profiled HEK293 cells as a model for non‐cancer cells.
(§3) Cell Viability assay by AlamarBlue. […] HEK‐293 were seeded into well plates, pretreated with solution of poly‐L‐Lysine. The medium was removed and the compounds at increasing concentration were added into the wells. The cells were incubated for 72 h in 200 μL/well at 37 °C in corresponding medium in the presence of 5 % CO2. After incubation time the medium was removed and replaced by 100 μL/well of medium containing 10 % AlamarBlue. The cells were incubated for 3–5 h at 37 °C with 5 % CO2 in a humidified atmosphere. The fluorescence was then measured on a Tecan Infinite M1000 Pro plate reader at λex 560 nm and λem 590 nm. The value was normalized according to the untreated cells.

HEK293 cells = test: Cell viability assay by AlamarBlue, HEK293 cells (model for non-cancer cells); assay type: cell-based; settings: 72 h incubation at 37 °C in DMEM high glucose medium with 10 % FBS; read-out: Toxicity IC50 HEK 293
Procedure: as §2, §3

P. aeruginosa PAO1 (WT) = assay type: cell-based, Pseudomonas aeruginosa
Procedure: (§1) […]. Minimal inhibitory concentration (MIC) determination. The minimal inhibitory concentration (MIC) was determined by using broth microdilution method. Antimicrobial activity was assayed against P. aeruginosa PAO1 (WT), Acinetobacter baumannii (ATCC19606). […]. The next day, 15 μL of MTT solution was added to each well of the plate, such a way that MIC was defined as the lowest concentration of the peptide that inhibited visible growth of the tested bacteria.

[1] = test system: Acinetobacter baumannii (ATCC19606); assay type: cell-based
Procedure: as §1

[2] = test system: human red blood cells (hRBC); test: Hemolysis assay on human red blood cells; assay type: cell-based
Source text: Synthesis and bioactivity testing. We prepared the 33 selected peptides, as well as the reference ACP LL‐III, by semi‐automated high‐temperature Fmoc solid‐phase peptide synthesis and obtained pure samples by preparative HPLC. All peptides were well‐behaved in terms of aqueous solubility, in line with the presence of two to seven cationic residues (lysine or arginine) in each sequence (Table 1). […]. We performed full IC50 determination for active sequences under the same conditions and similarly profiled HEK293 cells as a model for non‐cancer cells. Finally, we determined peptide concentrations causing 50 % hemolysis (HC50) on human red blood cells (hRBC) by serial 2‐fold dilution.
Hemolysis assay. Compounds were subjected to a hemolysis assay to assess the hemolytic effect on human red blood cells (hRBCs). […]. Controls on each plate included a blank medium control (PBS 100 μL) and a hemolytic activity control (0.1 % Triton^TM X‐100). 100 μL of hRBC suspension was incubated with 100 μL of each sample in PBS in V‐shape 96‐well plate. […]. Hemolysis was measured by analyzing the absorbance of free hemoglobin leaked out of compromised in the supernatants at 540 nm with a plate reader (Tecan instrument Infinite M1000). The percentage of hemolysis at each concentration was detected and HC50 was determined.

[3] = test system: human red blood cells (hRBC); settings: below 200 μM; cited from earlier work
[4] = incubation 16–20 h at 37 °C in MH medium
[5] = human red blood cells in 10 mM phosphate buffer saline, pH 7.4, 25 °C

anwkkwigkviklvk [DB1]
IC50 (HeLa cells): 6.2 ± 1.1 µM
IC50 (HEK293 cells): 13.1 ± 2.8 µM
MIC PAO1 (P. aeruginosa PAO1 (WT); [4]): 4 µg/mL
MIC A. baumannii [1, 4]: 2 µg/mL

CC[C@@H](C)[C@@H](NC(=O)[C@@H](CCCCN)NC(=O)[C@@H](CCCCN)NC(=O)[C@@H](Cc1c[nH]c2ccccc12)NC(=O)[C@@H](CC(N)=O)NC(=O)[C@H](N)C(C)C)C(=O)N[C@H](CC(C)C)C(=O)NCC(=O)N[C@H](CCCCN)C(=O)N[C@@H](C(=O)N[C@@H](C(=O)N[C@H](CCCCN)C(=O)N[C@@H](C(=O)N[C@@H](C(=O)N[C@H](CCCCN)C(N)=O)C(C)C)C(C)C)[C@H](C)CC)[C@H](C)CC [DLL‐III, vnwkkilgkiikvvk] (H-[dV][dN][dW][dK][dK][dI][dL]G[dK][dI][dI][dK][dV][dV][dK]-NH2)
IC50 (HeLa cells): 5 ± 0.7 µM
IC50 (HEK293 cells): 14.5 ± 2 µM
Hemolysis HC50 hRBC [2, 5]: >200 µM
MIC PAO1 (P. aeruginosa PAO1 (WT); [4]): 4 µg/mL (≈ 2.27 µM)
MIC A. baumannii [1, 4]: 2 µg/mL (≈ 1.13 µM)

VNWKKILGKIIKVVK-NH2 [LL‐III, lasioglossin III]
IC50 (HeLa cells): 6 ± 0.5 µM
IC50 (HEK293 cells): 15 ± 3 µM
Hemolysis HC50 hRBC [2, 5]: >200 µM
MIC A. baumannii [1, 4]: 4 µg/mL
documented hemolysis [3]: non‐hemolytic

C[C@@H](NC(=O)[C@H](N)Cc1ccccc1)C(=O)N[C@H](CCCCN)C(=O)N[C@H](CCCCN)C(=O)N[C@H](Cc1ccccc1)C(=O)N[C@H](Cc1ccccc1)C(=O)N[C@H](CCCCN)C(=O)N[C@H](CCCCN)C(=O)N[C@H](Cc1ccccc1)C(=O)N[C@H](C)C(=O)N[C@H](CCCCN)C(=O)N[C@H](Cc1ccccc1)C(=O)N[C@H](C)C(=O)N[C@H](Cc1ccccc1)C(=O)N[C@H](CCCCN)C(N)=O [DA1, fakkffkkfakfafk] (H-[dF][dA][dK][dK][dF][dF][dK][dK][dF][dA][dK][dF][dA][dF][dK]-NH2)
IC50 (HeLa cells): 7.9 ± 0.3 µM
IC50 (HEK293 cells): 15 ± 2.3 µM
Hemolysis HC50 hRBC ([2]; pH 7.4): >200 µM
MIC PAO1 (P. aeruginosa PAO1 (WT); PAO1): 4 µg/mL (≈ 2.12 µM)
MIC A. baumannii ([1]; ATCC19606): 4 µg/mL (≈ 2.12 µM)
